Data published in PubChem BioAssay (NCI).
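Five concentrations, 48 hours, 96-well plates. TGI is the concentration that stops growth completely.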

What was measured:
Assay in all cases: growth of human tumour cells (NCI), 48 h
A498 renal = test system: A498 renal
HCC-2998 colon = test system: HCC-2998 colon
SK-MEL-28 melanoma = test system: SK-MEL-28 melanoma
786-0 renal = test system: 786-0 renal
CAKI-1 renal = test system: CAKI-1 renal
SF-295 CNS = test system: SF-295 CNS
KM12 colon = test system: KM12 colon
MDA-MB-435 = test system: MDA-MB-435
HOP-92 NSCLC = test system: HOP-92 NSCLC
SNB-75 CNS = test system: SNB-75 CNS
RXF 393 renal = test system: RXF 393 renal
DU-145 prostate = test system: DU-145 prostate
M19-MEL melanoma = test system: M19-MEL melanoma
SF-268 CNS = test system: SF-268 CNS
ACHN renal = test system: ACHN renal
M14 melanoma = test system: M14 melanoma
NCI-H226 lung = test system: NCI-H226 lung
UACC-257 melanoma = test system: UACC-257 melanoma
SK-OV-3 ovarian = test system: SK-OV-3 ovarian
EKVX NSCLC = test system: EKVX NSCLC
TK-10 renal = test system: TK-10 renal
BT-549 breast = test system: BT-549 breast
MALME-3M melanoma = test system: MALME-3M melanoma
OVCAR-3 ovarian = test system: OVCAR-3 ovarian
RXF-631 renal = test system: RXF-631 renal
HCT-116 colon = test system: HCT-116 colon
UACC-62 melanoma = test system: UACC-62 melanoma
MOLT-4 leukemia = test system: MOLT-4 leukemia
NCI-H460 lung = test system: NCI-H460 lung
SR leukemia = test system: SR leukemia
DLD-1 colon = test system: DLD-1 colon
K-562 leukemia = test system: K-562 leukemia
OVCAR-4 ovarian = test system: OVCAR-4 ovarian
SN12C renal = test system: SN12C renal
IGROV1 ovarian = test system: IGROV1 ovarian
HOP-62 NSCLC = test system: HOP-62 NSCLC
SNB-19 CNS = test system: SNB-19 CNS
NCI-H23 lung = test system: NCI-H23 lung
LXFL 529 NSCLC = test system: LXFL 529 NSCLC
OVCAR-8 ovarian = test system: OVCAR-8 ovarian
SW-620 colon = test system: SW-620 colon
HS 578T breast = test system: HS 578T breast
NCI/ADR-RES ovarian = test system: NCI/ADR-RES ovarian
NCI-H522 lung = test system: NCI-H522 lung
RPMI-8226 leukemia = test system: RPMI-8226 leukemia
XF 498 CNS = test system: XF 498 CNS
HT29 colon = test system: HT29 colon
PC-3 prostate = test system: PC-3 prostate
OVCAR-5 ovarian = test system: OVCAR-5 ovarian
HCT-15 colon = test system: HCT-15 colon
MDA-MB-231 breast = test system: MDA-MB-231 breast
HL-60(TB) leukemia = test system: HL-60(TB) leukemia
SF-539 CNS = test system: SF-539 CNS
MCF7 breast = test system: MCF7 breast
A549 NSCLC = test system: A549 NSCLC
KM20L2 colon = test system: KM20L2 colon
CCRF-CEM leukemia = test system: CCRF-CEM leukemia
SNB-78 CNS = test system: SNB-78 CNS
SK-MEL-2 melanoma = test system: SK-MEL-2 melanoma
UO-31 renal = test system: UO-31 renal
U251 CNS = test system: U251 CNS
MDA-N = test system: MDA-N
COLO 205 colon = test system: COLO 205 colon
SK-MEL-5 melanoma = test system: SK-MEL-5 melanoma
HOP-18 NSCLC = test system: HOP-18 NSCLC
LOX IMVI melanoma = test system: LOX IMVI melanoma
DMS 273 small cell lung = test system: DMS 273 small cell lung
DMS 114 small cell lung = test system: DMS 114 small cell lung

Measured: TGI

C/C(=N\NS(=O)(=O)c1ccc(C)cc1)C(CN(C)C)C(c1ccccc1)c1c(O)c2ccccc2oc1=O (centres undefined)
> 84.7 µM: SNB-75 CNS
> 100 µM: A498 renal | HCC-2998 colon | SK-MEL-28 melanoma | 786-0 renal | CAKI-1 renal | SF-295 CNS | KM12 colon | MDA-MB-435 | HOP-92 NSCLC | RXF 393 renal | DU-145 prostate | M19-MEL melanoma | SF-268 CNS | ACHN renal | M14 melanoma | NCI-H226 lung | UACC-257 melanoma | SK-OV-3 ovarian | EKVX NSCLC | TK-10 renal | BT-549 breast | MALME-3M melanoma | OVCAR-3 ovarian | RXF-631 renal | HCT-116 colon | UACC-62 melanoma | MOLT-4 leukemia | NCI-H460 lung | SR leukemia | DLD-1 colon | K-562 leukemia | OVCAR-4 ovarian | SN12C renal | IGROV1 ovarian | HOP-62 NSCLC | SNB-19 CNS | NCI-H23 lung | LXFL 529 NSCLC | OVCAR-8 ovarian | SW-620 colon | HS 578T breast | NCI/ADR-RES ovarian | NCI-H522 lung | RPMI-8226 leukemia | XF 498 CNS | HT29 colon | PC-3 prostate | OVCAR-5 ovarian | HCT-15 colon | MDA-MB-231 breast | HL-60(TB) leukemia | SF-539 CNS | MCF7 breast | A549 NSCLC | KM20L2 colon | CCRF-CEM leukemia | SNB-78 CNS | SK-MEL-2 melanoma | UO-31 renal | U251 CNS | MDA-N | COLO 205 colon | SK-MEL-5 melanoma | HOP-18 NSCLC | LOX IMVI melanoma

O=C(CCCNC(=O)OCc1ccccc1)OCc1ccc2c(c1)C(=O)c1ccccc1C2=O
57.8 µM: SF-539 CNS
83.9 µM: SF-295 CNS
> 100 µM: A498 renal | HCC-2998 colon | SK-MEL-28 melanoma | KM12 colon | SF-268 CNS | ACHN renal | M14 melanoma | UACC-257 melanoma | DMS 273 small cell lung | EKVX NSCLC | TK-10 renal | MALME-3M melanoma | OVCAR-3 ovarian | RXF-631 renal | HCT-116 colon | UACC-62 melanoma | MOLT-4 leukemia | NCI-H460 lung | SR leukemia | DLD-1 colon | K-562 leukemia | OVCAR-4 ovarian | SNB-19 CNS | NCI-H23 lung | LXFL 529 NSCLC | SW-620 colon | NCI-H522 lung | RPMI-8226 leukemia | HT29 colon | DMS 114 small cell lung | OVCAR-5 ovarian | HCT-15 colon | HL-60(TB) leukemia | A549 NSCLC | KM20L2 colon | CCRF-CEM leukemia | SK-MEL-2 melanoma | UO-31 renal | U251 CNS | SK-MEL-5 melanoma | LOX IMVI melanoma
79 µM: SK-OV-3 ovarian
> 23 µM: COLO 205 colon
48.5 µM: RXF 393 renal
> 93.4 µM: HOP-62 NSCLC
> 56.2 µM: 786-0 renal | OVCAR-8 ovarian
40.3 µM: SNB-75 CNS
99 µM: IGROV1 ovarian
42.6 µM: NCI-H226 lung
> 26 µM: SN12C renal
> 94.3 µM: SNB-78 CNS
> 89.6 µM: CAKI-1 renal
> 91.3 µM: HOP-92 NSCLC

O=C(/C=C/c1c(O)ccc2ccccc12)c1cccc2ccccc12
> 88.6 µM: K-562 leukemia
> 67.8 µM: CCRF-CEM leukemia
> 100 µM: A498 renal | HCC-2998 colon | SK-MEL-28 melanoma | 786-0 renal | CAKI-1 renal | SF-295 CNS | KM12 colon | HOP-92 NSCLC | SNB-75 CNS | RXF 393 renal | SF-268 CNS | ACHN renal | M14 melanoma | NCI-H226 lung | UACC-257 melanoma | SK-OV-3 ovarian | DMS 273 small cell lung | EKVX NSCLC | TK-10 renal | MALME-3M melanoma | OVCAR-3 ovarian | HCT-116 colon | UACC-62 melanoma | MOLT-4 leukemia | NCI-H460 lung | SR leukemia | DLD-1 colon | SN12C renal | IGROV1 ovarian | HOP-62 NSCLC | SNB-19 CNS | NCI-H23 lung | LXFL 529 NSCLC | OVCAR-8 ovarian | NCI-H522 lung | XF 498 CNS | HT29 colon | DMS 114 small cell lung | OVCAR-5 ovarian | HCT-15 colon | SF-539 CNS | A549 NSCLC | KM20L2 colon | SNB-78 CNS | SK-MEL-2 melanoma | UO-31 renal | U251 CNS | COLO 205 colon | SK-MEL-5 melanoma | HOP-18 NSCLC | LOX IMVI melanoma
> 51.6 µM: SW-620 colon
> 78 µM: RPMI-8226 leukemia
71.9 µM: M19-MEL melanoma
> 63.7 µM: HL-60(TB) leukemia
